Data set [1] can be described thus: Solubility in water. It counts as physicochemical.
The subject of data set [2] is Calf thymus DNA. The data set can be described thus: Binding affinity to calf thymus DNA assessed as change in melting temperature in citric acid/NaOH buffer ayt pH 5 at [compound]/[DNA] ratio of 0.3 by tangent method. It counts as nucleic-acid assay. The conditions noted are these: Bos taurus.
Data set [3] concerns Calf thymus DNA. Put plainly: Binding affinity to calf thymus DNA assessed as change in melting temperature in citric acid/NaOH buffer ayt pH 5 at [compound]/[DNA] ratio of 0.1 by tangent method. The following applies: Bos taurus. It counts as nucleic-acid assay.
The test system of data set [4] is Calf thymus DNA. The data set can be described thus: Binding affinity to calf thymus DNA assessed as fluorescence quenching at pH 5 by fluorimetric titration. It counts as nucleic-acid assay. The following applies: Bos taurus.
The test system of data set [5] is Calf thymus DNA. The data set can be described thus: Binding affinity to calf thymus DNA assessed as change in melting temperature in citric acid/NaOH buffer ayt pH 5 at [compound]/[DNA] ratio of 0.2 by tangent method. It counts as nucleic-acid assay. The conditions noted are these: Bos taurus.
In data set [6] the test system is MIA PaCa-2. Put plainly: Cytotoxicity against human MIAPaCa2 cells after 72 hrs by MTT assay. It counts as functional, cell-based. The following applies: MIA PaCa-2, 72 h. In general terms: Tetrazolium assays rely on reduction of a dye to a coloured formazan, in cell work by metabolically active cells.
In data set [7] the test system is HeLa. Put plainly: Cytotoxicity against human HeLa cells after 72 hrs by MTT assay. It counts as functional, cell-based.
In data set [8] the test system is NCI-H460. Put plainly: Cytotoxicity against human H460 cells after 72 hrs by MTT assay. It counts as functional, cell-based. The conditions noted are these: NCI-H460, 72 h.
The subject of data set [9] is MCF7. Put plainly: Cytotoxicity against human MCF7 cells after 72 hrs by MTT assay. It counts as functional, cell-based. The following applies: MCF7, 72 h.
The subject of data set [10] is SW-620. The data set can be described thus: Cytotoxicity against human SW620 cells after 72 hrs by MTT assay. It counts as functional, cell-based. The conditions noted are these: SW-620, 72 h.
Data set [11] deals with Calf thymus DNA. The data set can be described thus: Binding affinity to calf thymus DNA assessed as fluorescence quenching at pH 7 by fluorimetric titration. It counts as nucleic-acid assay. The conditions noted are these: Bos taurus.

Converted amounts (≈) assume the structure as drawn.

Broadly, the solubility is the concentration that dissolves in the medium under given conditions. One may read the ΔTm as the change in melting temperature against a reference sample. In general, IC50 refers to the concentration needed to halve the response being measured. High values mean lower potency, low ones higher potency.

Compound `Cc1nc2ccccc2c2ccc(C[C@H](NC(=O)[C@@H](N)Cc3ccc4c(c3)c(C)nc3ccccc34)C(=O)O)cc12` gave a solubility in [1] of 1000 µM (≈ 543 µg/mL). Also, the ΔTm is 11.3 °C in data set [2], 8.6 °C in data set [3] and 11 °C in [5]. Moreover, the log Ks in data set [4] is 6.7.

In turn, `Cc1nc2ccccc2c2ccc(C[C@H](NC(=O)CNC(=O)[C@@H](N)Cc3ccc4c(c3)c(C)nc3ccccc34)C(=O)O)cc12` gave a solubility in [1] of 1000 µM (≈ 600 µg/mL). Moreover, the IC50 in [6], in [7], in data set [8], in data set [9] and in [10] was over 100 µM throughout. Further, the results for the ΔTm in data set [2], in data set [3] and in data set [5] were 18.4 °C, 14.3 °C and 16.5 °C, respectively.

Take `Cc1nc2ccccc2c2ccc(C[C@H](N)C(=O)O)cc12`: in data set [1], the concentration in solution (solubility) came to 1000 µM (≈ 280 µg/mL). For the same compound, the IC50 in data set [6], in data set [7], in [8], in data set [9] and in data set [10] was over 100 µM each time. Further, the ΔTm in data set [2] came out at 4 °C.

With `Cc1nc2ccccc2c2ccc(C[C@H](NC(=O)CN)C(=O)O)cc12`, the solubility in data set [1] was found to be 1000 µM (≈ 337 µg/mL). The values for the ΔTm in data set [2], in [3] and in data set [5] were 11.1 °C, 6.5 °C and 8.1 °C, respectively. In addition, the results for the log Ks in data set [4] and in data set [11] were 5.5 and 4.7, respectively.

The record behind these values is ChEMBL document CHEMBL1165876, “Novel bis-phenanthridine derivatives with easily tunable linkers, study of their interactions with DNA and screening of antiproliferative activity” (Eur J Med Chem, 2010).
